Data as given in publication PMC11806944 (Analytical methods : advancing methods and applications, 2025).

Tests used:
[1] = Sorption control wells: abiotic losses to polystyrene 96-well microplate; assay type: physicochemical
zebrafish embryos [2] = conditions: Tropical 5D wild-type, in vivo, 35 μM; for Chemical uptake amount as share of the total chemical amount added: 5 day
zebrafish embryos [3] = conditions: ~120 hpf; for Incidence of any effect in embryonic zebrafish: 35 μM exposure with daily UV fluorescence measurement
embryonic zebrafish = conditions: cited from earlier work
[4] = estimated; cited from earlier work
[5] = ref Hazard Substances Data Bank (HSDB); cited from earlier work

Compound | Actual equilibrium media concentration ([1]; control wells, reached after 1 day, ~35 μM nominal) | Total uptake mass per zebrafish embryo, corrected for abiotic losses (zebrafish embryos [2]) [nmol] | Chemical uptake amount as share of the total chemical amount added (zebrafish embryos [2]) | Incidence of any effect in embryonic zebrafish (zebrafish embryos [3]) [%] | Endpoints observed shared by both chemicals (zebrafish embryos [3]; 35 μM exposure) | Lowest observed adverse effect level (LOAEL) (embryonic zebrafish) [µM] | log Kow [4] | Henry's coefficient [5] | Decrease in sorption rate when plates were removed from the shaker table ([1]; t ≤ 1 day vs t ≥ 1 day) [factor] | Further endpoints observed (zebrafish embryos [3]; 35 μM exposure)
Oc1ccc2ccccc2c1 [2-hydroxynaphthalene] | approximately 31.5 μM | 2.09 ± 0.89 | approximately 50% | 97 | mortality, yolk sac and pericardial edema, and pectoral fin malformation | 35 | 2.7 | 2.7 × 10^−8 atm m^3 mol^−1 |  | 
c1ccc2nc3ccccc3cc2c1 [acridine, Acridine] |  | 0.67 ± 0.26 | ~21% | 100 | mortality, yolk sac and pericardial edema, and pectoral fin malformation | 35 | 3.4 | 4 × 10^−7 atm m^3 mol^−1 | 2 | Axis and cranial deformities
